Test results from ChEMBL document CHEMBL4184210, “Optimization of novel monobactams with activity against carbapenem-resistant Enterobacteriaceae - Identification of LYS228” (Bioorg Med Chem Lett, 2018).

Columns and labels:
Escherichia coli [1] = experiment: microbe, parasite or virus in culture
Description: Antimicrobial activity against Escherichia coli expressing beta-lactamase SHV-12 by CLSI broth microdilution method

Escherichia coli [2] = experiment: microbe, parasite or virus in culture; remark: listed apart in the source
Description: Antimicrobial activity against wild type Escherichia coli by CLSI broth microdilution method

Pseudomonas aeruginosa [3] = experiment: Antimicrobial activity against Pseudomonas aeruginosa expressing delta-mexB/mexXY/delta-ampDh2/ delta-ampD by CLSI broth microdilution method; type: functional
Pseudomonas aeruginosa [4] = experiment: Antimicrobial activity against Pseudomonas aeruginosa expressing nalB/delta-mexXY/delta-mexCDoprJ/delta-ampC by CLSI broth microdilution method; type: functional
Escherichia coli [5] = experiment: microbe, parasite or virus in culture; remark: listed apart in the source
Description: Antimicrobial activity against Escherichia coli expressing beta-lactamase CTXM-15 by CLSI broth microdilution method

Escherichia coli [6] = experiment: microbe, parasite or virus in culture; remark: listed apart in the source
Description: Antimicrobial activity against Escherichia coli expressing beta-lactamase AmpC by CLSI broth microdilution method

Escherichia coli [7] = experiment: Antimicrobial activity against Escherichia coli expressing beta-lactamase KPC-2 by CLSI broth microdilution method; type: functional
Escherichia coli [8] = experiment: microbe, parasite or virus in culture; remark: listed apart in the source
Description: Antimicrobial activity against Escherichia coli expressing beta-lactamase CMY-2 by CLSI broth microdilution method

Escherichia coli [9] = experiment: microbe, parasite or virus in culture; remark: listed apart in the source
Description: Antimicrobial activity against Escherichia coli expressing beta-lactamase TEM-10 by CLSI broth microdilution method

Pseudomonas aeruginosa [10] = experiment: Antimicrobial activity against Pseudomonas aeruginosa ATCC 27853 by CLSI broth microdilution method; type: functional
Pseudomonas aeruginosa [11] = experiment: Antimicrobial activity against Pseudomonas aeruginosa expressing delta-mexB/delta-mexXY/delta-mexCD and delta-ampC mutant by CLSI broth microdilution method; type: functional
Escherichia coli [12] = experiment: microbe, parasite or virus in culture; remark: listed apart in the source
Description: Antimicrobial activity against Escherichia coli expressing beta-lactamase Oxa-48 by CLSI broth microdilution method

Escherichia coli [13] = experiment: microbe, parasite or virus in culture; remark: listed apart in the source
Description: Antimicrobial activity against Escherichia coli expressing beta-lactamase VEB-7 by CLSI broth microdilution method

Escherichia coli [14] = experiment: Antimicrobial activity against Escherichia coli expressing beta-lactamase NDM-5 by CLSI broth microdilution method; type: functional
Escherichia coli [15] = experiment: microbe, parasite or virus in culture; remark: listed apart in the source
Description: Antimicrobial activity against Escherichia coli expressing beta-lactamase KPC-3 by CLSI broth microdilution method

Escherichia coli [16] = experiment: microbe, parasite or virus in culture; remark: listed apart in the source
Description: Antimicrobial activity against Escherichia coli expressing beta-lactamase Oxa-18 by CLSI broth microdilution method

Escherichia coli [17] = experiment: microbe, parasite or virus in culture; remark: listed apart in the source
Description: Antimicrobial activity against Escherichia coli expressing beta-lactamase CTXM-3 by CLSI broth microdilution method

Escherichia coli [18] = experiment: microbe, parasite or virus in culture; remark: listed apart in the source
Description: Antimicrobial activity against Escherichia coli expressing beta-lactamase PER-1 by CLSI broth microdilution method

Escherichia coli [19] = experiment: microbe, parasite or virus in culture; remark: listed apart in the source
Description: Antimicrobial activity against Escherichia coli expressing beta-lactamase Oxa-160 by CLSI broth microdilution method

Escherichia coli [20] = experiment: microbe, parasite or virus in culture; remark: listed apart in the source
Description: Antimicrobial activity against Escherichia coli expressing beta-lactamase Oxa-225 by CLSI broth microdilution method

Escherichia coli [21] = experiment: microbe, parasite or virus in culture; remark: listed apart in the source
Description: Antimicrobial activity against Escherichia coli expressing beta-lactamase SPM-1 by CLSI broth microdilution method

Escherichia coli [22] = experiment: microbe, parasite or virus in culture; remark: listed apart in the source
Description: Antimicrobial activity against Escherichia coli expressing beta-lactamase NMC-A by CLSI broth microdilution method

Escherichia coli [23] = experiment: microbe, parasite or virus in culture; remark: listed apart in the source
Description: Antimicrobial activity against Escherichia coli expressing beta-lactamase P99 by CLSI broth microdilution method

Escherichia coli [24] = experiment: microbe, parasite or virus in culture; remark: listed apart in the source
Description: Antimicrobial activity against Escherichia coli expressing beta-lactamase PER-2 by CLSI broth microdilution method

Escherichia coli [25] = experiment: microbe, parasite or virus in culture; remark: listed apart in the source
Description: Antimicrobial activity against Escherichia coli expressing beta-lactamase KPC-8 by CLSI broth microdilution method

Escherichia coli [26] = experiment: microbe, parasite or virus in culture; remark: listed apart in the source
Description: Antimicrobial activity against Escherichia coli expressing beta-lactamase KPC-4 by CLSI broth microdilution method

Escherichia coli [27] = experiment: Antimicrobial activity against Escherichia coli expressing beta-lactamase VEB-1 by CLSI broth microdilution method; type: functional
Escherichia coli [28] = experiment: microbe, parasite or virus in culture; remark: listed apart in the source
Description: Antimicrobial activity against Escherichia coli expressing beta-lactamase Oxa-181 by CLSI broth microdilution method

Escherichia coli [29] = experiment: microbe, parasite or virus in culture; remark: listed apart in the source
Description: Antimicrobial activity against Escherichia coli expressing beta-lactamase Oxa-51 by CLSI broth microdilution method

Escherichia coli [30] = experiment: Antimicrobial activity against Escherichia coli expressing beta-lactamase NDM-1 by CLSI broth microdilution method; type: functional
Escherichia coli [31] = experiment: microbe, parasite or virus in culture; remark: listed apart in the source
Description: Antimicrobial activity against Escherichia coli expressing beta-lactamase TEM-16 by CLSI broth microdilution method

Escherichia coli [32] = experiment: microbe, parasite or virus in culture; remark: listed apart in the source
Description: Antimicrobial activity against Escherichia coli expressing beta-lactamase SME-1 by CLSI broth microdilution method

Escherichia coli [33] = experiment: microbe, parasite or virus in culture; remark: listed apart in the source
Description: Antimicrobial activity against Escherichia coli expressing beta-lactamase IMP-1 by CLSI broth microdilution method

Escherichia coli [34] = experiment: microbe, parasite or virus in culture; remark: listed apart in the source
Description: Antimicrobial activity against Escherichia coli expressing beta-lactamase GES-1 by CLSI broth microdilution method

Escherichia coli [35] = experiment: microbe, parasite or virus in culture; remark: listed apart in the source
Description: Antimicrobial activity against Escherichia coli expressing beta-lactamase IMI-1 by CLSI broth microdilution method

Escherichia coli [36] = experiment: microbe, parasite or virus in culture; remark: listed apart in the source
Description: Antimicrobial activity against Escherichia coli expressing beta-lactamase Oxa-146 by CLSI broth microdilution method

Escherichia coli [37] = experiment: microbe, parasite or virus in culture; remark: listed apart in the source
Description: Antimicrobial activity against Escherichia coli expressing beta-lactamase PER-4 by CLSI broth microdilution method

Escherichia coli [38] = experiment: Antimicrobial activity against Escherichia coli expressing beta-lactamase TEM-1 by CLSI broth microdilution method; type: functional
Escherichia coli [39] = experiment: microbe, parasite or virus in culture; remark: listed apart in the source
Description: Antimicrobial activity against Escherichia coli expressing beta-lactamase TEM-24 by CLSI broth microdilution method

Escherichia coli [40] = experiment: microbe, parasite or virus in culture; remark: listed apart in the source
Description: Antimicrobial activity against Escherichia coli expressing beta-lactamase GIM-1 by CLSI broth microdilution method

Escherichia coli [41] = experiment: microbe, parasite or virus in culture; remark: listed apart in the source
Description: Antimicrobial activity against Escherichia coli expressing beta-lactamase VIM-1 by CLSI broth microdilution method

Escherichia coli [42] = experiment: microbe, parasite or virus in culture; remark: listed apart in the source
Description: Antimicrobial activity against Escherichia coli expressing beta-lactamase Oxa-10 by CLSI broth microdilution method

Escherichia coli [43] = experiment: microbe, parasite or virus in culture; remark: listed apart in the source
Description: Antimicrobial activity against Escherichia coli expressing beta-lactamase MIR-1 by CLSI broth microdilution method

Escherichia coli [44] = experiment: microbe, parasite or virus in culture; remark: listed apart in the source
Description: Antimicrobial activity against Escherichia coli expressing beta-lactamase TEM-47 by CLSI broth microdilution method

Escherichia coli [45] = experiment: microbe, parasite or virus in culture; remark: listed apart in the source
Description: Antimicrobial activity against Escherichia coli expressing beta-lactamase Oxa-40 by CLSI broth microdilution method

Escherichia coli [46] = experiment: microbe, parasite or virus in culture; remark: listed apart in the source
Description: Antimicrobial activity against Escherichia coli expressing beta-lactamase Oxa-23 by CLSI broth microdilution method

Escherichia coli [47] = experiment: microbe, parasite or virus in culture; remark: listed apart in the source
Description: Antimicrobial activity against Escherichia coli expressing beta-lactamase VEB-4 by CLSI broth microdilution method

Escherichia coli [48] = experiment: microbe, parasite or virus in culture; remark: listed apart in the source
Description: Antimicrobial activity against Escherichia coli expressing beta-lactamase DHA by CLSI broth microdilution method

Escherichia coli [49] = experiment: microbe, parasite or virus in culture; remark: listed apart in the source
Description: Antimicrobial activity against Escherichia coli expressing beta-lactamase TEM-121 by CLSI broth microdilution method

[50] = Chemical stability in pH 7.4 potassium phosphate buffer assessed as half life for compound hydrolysis at 37 degC by UPLC and mass spectrometry; type: physicochemical

CC(C)(O/N=C(\C(=O)N[C@@H]1C(=O)N(S(=O)(=O)O)[C@@H]1Cn1cncn1)c1nsc(N)n1)C(=O)O
2 µg/mL: MIC (Escherichia coli [7])
8 µg/mL: MIC (Escherichia coli [1]) | MIC (Escherichia coli [9])
32 µg/mL: MIC (Escherichia coli [6]) | MIC (Pseudomonas aeruginosa [10])
16 µg/mL: MIC (Escherichia coli [8])
1 µg/mL: MIC (Escherichia coli [2]) | MIC (Escherichia coli [5]) | MIC (Pseudomonas aeruginosa [11])
> 64 µg/mL: MIC (Pseudomonas aeruginosa [3]) | MIC (Pseudomonas aeruginosa [4])

CCN1CCN(C(=O)N[C@@H](C(=O)N[C@@H]2C(=O)N3[C@@H]2SC(C)(C)[C@@H]3C(=O)O)c2ccccc2)C(=O)C1=O [PIPERACILLIN]
64 µg/mL: MIC (Escherichia coli [19]) | MIC (Escherichia coli [21]) | MIC (Escherichia coli [22]) | MIC (Escherichia coli [31]) | MIC (Escherichia coli [35]) | MIC (Escherichia coli [44]) | MIC (Escherichia coli [48]) | MIC (Escherichia coli [49])
4 µg/mL: MIC (Escherichia coli [2])
16 µg/mL: MIC (Escherichia coli [33]) | MIC (Escherichia coli [39])
> 64 µg/mL: MIC (Escherichia coli [12]) | MIC (Escherichia coli [14]) | MIC (Escherichia coli [15]) | MIC (Escherichia coli [16]) | MIC (Escherichia coli [17]) | MIC (Escherichia coli [20]) | MIC (Escherichia coli [24]) | MIC (Escherichia coli [25]) | MIC (Escherichia coli [26]) | MIC (Escherichia coli [28]) | MIC (Escherichia coli [1]) | MIC (Escherichia coli [30]) | MIC (Escherichia coli [32]) | MIC (Escherichia coli [34]) | MIC (Escherichia coli [36]) | MIC (Escherichia coli [38]) | MIC (Escherichia coli [5]) | MIC (Escherichia coli [40]) | MIC (Escherichia coli [41]) | MIC (Escherichia coli [6]) | MIC (Escherichia coli [7]) | MIC (Escherichia coli [42]) | MIC (Escherichia coli [9]) | MIC (Escherichia coli [45]) | MIC (Escherichia coli [46])
32 µg/mL: MIC (Escherichia coli [13]) | MIC (Escherichia coli [18]) | MIC (Escherichia coli [23]) | MIC (Escherichia coli [27]) | MIC (Escherichia coli [8])
8 µg/mL: MIC (Escherichia coli [29]) | MIC (Escherichia coli [37]) | MIC (Escherichia coli [43]) | MIC (Escherichia coli [47])

CC(C)(O/N=C(/C(=O)N[C@@H]1C(=O)N(OS(=O)(=O)O)C1(C)C)c1csc(N)n1)C(=O)O (stereo in doubt)
0.25 µg/mL: MIC (Escherichia coli [12]) | MIC (Escherichia coli [2]) | MIC (Escherichia coli [30]) | MIC (Escherichia coli [7])
> 32 µg/mL: MIC (Escherichia coli [1])
0.5 µg/mL: MIC (Escherichia coli [6])
1 µg/mL: MIC (Escherichia coli [5])
100 h: half-life [50]

CC1(C)[C@H](NC(=O)/C(=N\OCc2cc(=O)c(O)cn2O)c2csc(N)n2)C(=O)N1OS(=O)(=O)O (stereo in doubt)
32 µg/mL: MIC (Escherichia coli [26])
> 64 µg/mL: MIC (Escherichia coli [24]) | MIC (Escherichia coli [9])
8 µg/mL: MIC (Escherichia coli [19]) | MIC (Escherichia coli [25]) | MIC (Escherichia coli [47]) | MIC (Escherichia coli [49])
2 µg/mL: MIC (Escherichia coli [13]) | MIC (Escherichia coli [20]) | MIC (Escherichia coli [36]) | MIC (Escherichia coli [43]) | MIC (Escherichia coli [44])
> 32 µg/mL: MIC (Escherichia coli [1])
0.125 µg/mL: MIC (Escherichia coli [12]) | MIC (Escherichia coli [14]) | MIC (Escherichia coli [28]) | MIC (Escherichia coli [42])
0.06 µg/mL: MIC (Escherichia coli [29]) | MIC (Escherichia coli [46])
≤ 0.03 µg/mL: MIC (Escherichia coli [45])
0.5 µg/mL: MIC (Escherichia coli [15]) | MIC (Escherichia coli [23]) | MIC (Escherichia coli [32]) | MIC (Escherichia coli [37]) | MIC (Escherichia coli [38]) | MIC (Escherichia coli [6]) | MIC (Escherichia coli [7])
16 µg/mL: MIC (Escherichia coli [16]) | MIC (Escherichia coli [18]) | MIC (Escherichia coli [27]) | MIC (Escherichia coli [31]) | MIC (Escherichia coli [39])
1 µg/mL: MIC (Escherichia coli [5])
≤ 0.06 µg/mL: MIC (Escherichia coli [21]) | MIC (Escherichia coli [40]) | MIC (Escherichia coli [41])
0.25 µg/mL: MIC (Escherichia coli [17]) | MIC (Escherichia coli [22]) | MIC (Escherichia coli [2]) | MIC (Escherichia coli [30]) | MIC (Escherichia coli [33]) | MIC (Escherichia coli [34]) | MIC (Escherichia coli [35]) | MIC (Escherichia coli [8]) | MIC (Escherichia coli [48])
